Assay [1] has as its target ERα_LBD (GST) (Homo sapiens (Human), UniProt P03372). Description: IC50 measurements for binding to ERα_LBD (GST), LanthaScreen TR-FRET competitive binding. The note with it: ERα_LBD (GST) 4 nM, Fluormone ES2 Green tracer, 60 min; read-out: ERα HTRF IC50. The method in brief:
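Competitive TR-FRET displacement of Fluormone ES2 Green tracer (3 nM) from GST-tagged human ERα LBD (4 nM) with Tb anti-GST (2 nM), in nuclear receptor buffer K plus 5 mM DTT, 1% DMSO. 60 min at room temperature, dark; 520/495 nm ratio vs log[compound] fitted sigmoidally for IC50.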
On the technique in general: TR-FRET usually uses a lanthanide donor and a delayed reading to cut background.

In assay [2] the target is ER in MCF-7 cells (Homo sapiens (Human), UniProt P03372). The experiment in a line: In-cell Western (ICW) ER degradation assay in MCF-7 cells. It is filed as cell-based. The following applies: for DC50: MCF-7, ER degradation, read-out: MCF7 DC50.
In assay [3] the target is ER in T47D cells (Homo sapiens (Human), UniProt P03372). The experiment in a line: In-cell Western (ICW) ER degradation assay in T47D cells. The class given is cell-based. The following applies: for DC50: ER degradation.
The test system of assay [4] is MCF-7 cells. Description: CellTiter-Glo (CTG) cell proliferation assay in MCF-7 cells. It is filed as cell-based. The note with it: Homo sapiens, MCF7, 144 h, MCF-7 cell proliferation, Day 6. An excerpt:
(§1) CellTiter-Glo® (CTG) Assays in MCF-7 and T47D Cell Lines.
(§2) In vitro Assay: MCF-7 and T47D CTG assay
For orientation: In ATP-based viability assays light output follows the ATP content of the culture.

Assay [5] has as its system T47D cells. The experiment in a line: CellTiter-Glo (CTG) cell proliferation assay in T47D cells. The class given is cell-based. The following applies: Homo sapiens, 144 h, Day 6.
Text: as §1, §2

In assay [6] the target is CRBN/DDB1 (Homo sapiens (Human), UniProt Q96SW2). It is filed as binding. The following applies: His tagged CRBN+DDB1, Cy5-labeled Thalidomide probe, one hour; read-out: CRBN HTRF IC50. As to the method:
The binding potency was determined using HTRF assay technology (Perkin Elmer). Compounds were serially diluted in DMSO and […] volume was transferred to white 384-well plate.

Where [7] appears, read: MCF7, MCF-7, maximal ER degradation, 16 hrs treatment, read-out: MCF7 Dmax.
Where [8] appears, read: maximal ER degradation, 16 hrs treatment, read-out: T47D Dmax.
Setting [9] is: MCF7, read-out: MCF7 Dmax, MCF-7, maximal ER degradation, 16 hrs treatment.
The mark [10] stands for this setting: read-out: T47D Dmax, T47D, maximal ER degradation, 16 hrs treatment.

The IC50 is the midpoint of a concentration-inhibition curve. In general, Dmax refers to the largest share of the target that was removed. What is called DC50 is the concentration at which degradation of the target reaches its halfway point.

Molecules are shown by their SMILES. Like-named read-outs stand apart in the source and are kept apart here.

Chain of ERα_LBD (GST) (P03372 311-547): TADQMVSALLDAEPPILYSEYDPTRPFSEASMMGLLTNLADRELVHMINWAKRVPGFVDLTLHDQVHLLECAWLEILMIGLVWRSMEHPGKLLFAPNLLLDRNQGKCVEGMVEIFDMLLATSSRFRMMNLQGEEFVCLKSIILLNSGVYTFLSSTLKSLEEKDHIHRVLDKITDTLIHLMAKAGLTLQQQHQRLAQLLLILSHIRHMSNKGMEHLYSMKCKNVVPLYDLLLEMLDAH
Chain of CRBN/DDB1 (Q96SW2 whole entry, species assumed): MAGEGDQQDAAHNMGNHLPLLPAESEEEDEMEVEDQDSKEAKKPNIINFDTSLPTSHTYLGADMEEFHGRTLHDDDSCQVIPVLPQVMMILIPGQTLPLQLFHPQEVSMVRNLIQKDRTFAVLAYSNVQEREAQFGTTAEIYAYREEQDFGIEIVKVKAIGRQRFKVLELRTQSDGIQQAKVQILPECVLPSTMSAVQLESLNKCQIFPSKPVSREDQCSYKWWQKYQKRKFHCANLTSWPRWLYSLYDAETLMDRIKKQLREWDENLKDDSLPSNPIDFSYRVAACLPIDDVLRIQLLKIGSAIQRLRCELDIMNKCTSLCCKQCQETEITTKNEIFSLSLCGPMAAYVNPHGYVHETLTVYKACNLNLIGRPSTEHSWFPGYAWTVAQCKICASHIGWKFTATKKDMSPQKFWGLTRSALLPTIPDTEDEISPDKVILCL
Chain of CRBN/DDB1 (Q16531 whole entry partner, species assumed): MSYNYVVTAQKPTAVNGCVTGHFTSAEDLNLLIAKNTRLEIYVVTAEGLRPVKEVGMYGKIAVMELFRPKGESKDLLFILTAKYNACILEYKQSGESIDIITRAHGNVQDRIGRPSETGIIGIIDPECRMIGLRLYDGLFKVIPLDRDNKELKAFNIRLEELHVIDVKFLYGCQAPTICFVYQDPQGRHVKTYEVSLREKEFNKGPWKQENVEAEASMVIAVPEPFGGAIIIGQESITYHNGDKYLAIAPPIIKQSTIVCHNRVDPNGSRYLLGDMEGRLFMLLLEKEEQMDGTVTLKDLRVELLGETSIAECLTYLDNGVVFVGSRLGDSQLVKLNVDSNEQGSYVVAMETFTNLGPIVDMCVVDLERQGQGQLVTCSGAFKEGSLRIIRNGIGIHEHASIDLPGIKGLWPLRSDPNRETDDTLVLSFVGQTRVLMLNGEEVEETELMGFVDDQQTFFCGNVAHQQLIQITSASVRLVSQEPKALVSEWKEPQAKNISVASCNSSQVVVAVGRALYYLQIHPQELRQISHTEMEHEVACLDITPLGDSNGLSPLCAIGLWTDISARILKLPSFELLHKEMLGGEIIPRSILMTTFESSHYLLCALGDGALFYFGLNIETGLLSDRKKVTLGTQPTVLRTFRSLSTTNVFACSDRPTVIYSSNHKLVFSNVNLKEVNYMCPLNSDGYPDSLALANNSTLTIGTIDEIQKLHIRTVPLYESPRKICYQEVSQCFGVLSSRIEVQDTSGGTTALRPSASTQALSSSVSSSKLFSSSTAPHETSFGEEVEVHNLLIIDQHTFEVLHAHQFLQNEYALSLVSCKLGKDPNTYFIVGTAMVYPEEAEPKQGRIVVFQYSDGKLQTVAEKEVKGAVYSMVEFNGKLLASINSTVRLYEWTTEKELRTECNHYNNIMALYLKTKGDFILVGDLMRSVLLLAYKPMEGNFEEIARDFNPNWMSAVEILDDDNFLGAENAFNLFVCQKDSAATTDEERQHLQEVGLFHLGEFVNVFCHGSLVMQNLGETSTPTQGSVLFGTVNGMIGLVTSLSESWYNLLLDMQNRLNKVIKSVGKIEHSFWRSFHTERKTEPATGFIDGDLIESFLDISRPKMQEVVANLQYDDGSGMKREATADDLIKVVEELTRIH
Chain of ER in MCF-7 cells (P03372 whole entry): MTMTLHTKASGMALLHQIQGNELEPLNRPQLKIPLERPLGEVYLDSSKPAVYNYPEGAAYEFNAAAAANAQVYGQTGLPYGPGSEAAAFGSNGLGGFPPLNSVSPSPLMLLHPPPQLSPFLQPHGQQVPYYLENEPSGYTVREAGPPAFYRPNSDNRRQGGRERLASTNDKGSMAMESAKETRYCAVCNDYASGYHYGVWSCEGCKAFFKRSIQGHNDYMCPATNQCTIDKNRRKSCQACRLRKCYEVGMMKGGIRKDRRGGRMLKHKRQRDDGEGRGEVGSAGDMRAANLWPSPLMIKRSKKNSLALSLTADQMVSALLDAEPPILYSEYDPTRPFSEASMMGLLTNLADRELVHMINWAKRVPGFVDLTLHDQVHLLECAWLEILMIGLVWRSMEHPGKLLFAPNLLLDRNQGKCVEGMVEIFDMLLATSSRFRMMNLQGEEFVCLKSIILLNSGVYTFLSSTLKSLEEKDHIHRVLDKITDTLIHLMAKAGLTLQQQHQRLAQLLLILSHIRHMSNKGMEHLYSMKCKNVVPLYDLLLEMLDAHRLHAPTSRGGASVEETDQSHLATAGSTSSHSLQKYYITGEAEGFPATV
Chain of ER in T47D cells (P03372 whole entry): as above

Consider `COc1cc(N2CCC3(CC2)CC(CN2CCC(c4ccc(N[C@@H]5CCC(=O)NC5=O)cc4)CC2)C3)c(F)cc1[C@@H]1c2ccc(O)cc2CC[C@@H]1c1ccccc1` (single isomer, unassigned) [Compound A31], for which the IC50 in assay [1] is under 10 nM; in assay [4], 10 to 100 nM; in assay [5], over 100 nM. Moreover, the Dmax in assay [2] (setting [7]) was 50 to 75%; in assay [3] (setting [8]), over 75%. The DC50 in assay [2] (16 hrs treatment) and in assay [3] (16 hrs treatment) was under 1 nM throughout.
Regarding `O=C1CC[C@H](N2Cc3c(ccc4c3OC[C@H]3CN(CC5COC6(C5)CN(c5ccc([C@H]7c8ccc(O)cc8CC[C@H]7c7ccccc7)cc5)C6)CCN43)C2=O)C(=O)N1` (single isomer, unassigned) [Compound A41], the IC50 in assay [6] was under 50 nM; in assay [1], under 10 nM; in assay [4], under 10 nM; in assay [5], under 10 nM. Moreover, the Dmax in assay [2] (setting [7]) and in assay [3] (setting [8]) was over 75% each time. For the same compound, the DC50 in assay [2] (16 hrs treatment) and in assay [3] (16 hrs treatment) was under 1 nM throughout.
On to `O=C1CC[C@H](N2Cc3cc4c(cc3C2=O)OC[C@@H]2CN(CC3COC5(C3)CN(c3ccc([C@H]6c7ccc(O)cc7CC[C@H]6c6ccccc6)cc3)C5)CCN42)C(=O)N1` (single isomer, unassigned) [Compound A43], for which the IC50 is 50 to 500 nM in assay [6], under 10 nM in assay [1], 10 to 100 nM in assay [4] and 10 to 100 nM in assay [5]. Besides, the Dmax in assay [2] (setting [7]) is 50 to 75%; in assay [3] (setting [8]), over 75%. The DC50 in assay [2] (16 hrs treatment) and in assay [3] (16 hrs treatment) was under 1 nM in each case.
In the case of `COc1cc(N2CCC3(CC2)C[C@H](CN2CCN4c5cc6c(cc5OC[C@@H]4C2)C(=O)N([C@H]2CCC(=O)NC2=O)C6)CO3)ccc1[C@@H]1c2ccc(O)cc2CC[C@@H]1c1ccccc1` (single isomer, unassigned) [Compound A135], the IC50 was 500 to 5000 nM in assay [6], under 10 nM in assay [1], under 10 nM in assay [4] and under 10 nM in assay [5]. Also, the Dmax in assay [2] (setting [7]) was over 75%. The DC50 in assay [2] (16 hrs treatment) and in assay [3] (16 hrs treatment) was under 1 nM in each case.
Regarding `COc1cc(N2CCC3(CC2)C[C@@H](CN2CCN4c5cc6c(cc5OC[C@@H]4C2)C(=O)N([C@H]2CCC(=O)NC2=O)C6)CO3)ccc1[C@@H]1c2ccc(O)cc2CC[C@@H]1c1ccccc1` (single isomer, unassigned) [Compound A136], the IC50 is 500 to 5000 nM in assay [6], under 10 nM in assay [1], under 10 nM in assay [4] and under 10 nM in assay [5]. The Dmax in assay [2] (setting [7]) and in assay [3] (setting [8]) was over 75% throughout. The DC50 in assay [2] (16 hrs treatment) and in assay [3] (16 hrs treatment) was under 1 nM in each case.
As to `COc1cc(N2CCC(CN3CCN4c5cc6c(cc5OC[C@H]4C3)C(=O)N([C@@H]3CCC(=O)NC3=O)C6)CC2)ccc1[C@H]1c2ccc(O)cc2CC[C@H]1c1ccccc1` (stereo in doubt) [Compound A34, (R)-3-((R)-3-((1-(4-((1R,2R)-6-hydroxy-2-phenyl-1,2,3,4-tetrahydronaphthalen-1-yl)-3-methoxyphenyl)piperidin-4-yl)methyl)-8-oxo-1,2,3,4,4a,5,8,10-octahydro-9H-pyrazino[1′,2′: 4,5][1,4]oxazino[2,3-f]isoindol-9-yl)piperidine-2,6-dione], the Dmax in assay [2] (setting [9]) and in assay [3] (setting [8]) was over 75% each time. Further, the DC50 in assay [2] (16 hrs treatment) and in assay [3] (16 hrs treatment) was under 1 nM in each case. Further, the IC50 in assay [4] and in assay [5] was under 10 nM in each case.
`COc1cc(N2CCC(CN3CCN4c5ccc6c(c5OCC4C3)CN([C@H]3CCC(=O)NC3=O)C6=O)CC2)c(F)cc1[C@@H]1c2ccc(O)cc2CC[C@@H]1c1ccccc1` (stereo in doubt) [Compound A35, (S)-3-((S)-7-((1-(2-fluoro-4-((1S,2S)-6-hydroxy-2-phenyl-1,2,3,4-tetrahydronaphthalen-1-yl)-5-methoxyphenyl)piperidin-4-yl)methyl)-1-oxo-1,3,5,5a,6,7,8,9-oCtahydro-2H-pyrazino[1′,2′: 4,5][1,4]oxazino[2,3-e]isoindol-2-yl)piperidine-2,6-dione]: the IC50 is under 10 nM in assay [1], 10 to 100 nM in assay [4] and 10 to 100 nM in assay [5]. For the same compound, the Dmax in assay [2] (setting [9]) and in assay [3] (setting [8]) was over 75% in each case. The DC50 in assay [2] (16 hrs treatment) and in assay [3] (16 hrs treatment) was under 1 nM each time.
`COc1cc(N2CCC3(CC2)C[C@H](CN2CCN4c5cc6c(cc5OC[C@@H]4C2)C(=O)N([C@H]2CCC(=O)NC2=O)C6)CO3)c(F)cc1[C@@H]1c2ccc(O)cc2CC[C@@H]1c1ccccc1` [Compound A173, (S)-3-((S)-3-(((R)-8-(2-fluoro-4-((1S,2S)-6-hydroxy-2-phenyl-1,2,3,4-tetrahydronaphthalen-1-yl)-5-methoxyphenyl)-1-oxa-8-azaspiro[4.5]decan-3-yl)methyl)-8-oxo-1,2,3,4,4a,5,8,10-octahydro-9H-pyrazino[1′,2′:4,5][1,4]oxazino[2,3-f]isoindol-9-yl)piperidine-2,6-dione]: the IC50 in assay [1], in assay [4] and in assay [5] was under 10 nM throughout. Further, the Dmax in assay [2] (setting [7]) and in assay [3] (setting [8]) was over 75% each time. Besides, the DC50 in assay [2] (16 hrs treatment) and in assay [3] (16 hrs treatment) was under 1 nM throughout.
Consider `COc1cc(N2CCC3(CC2)C[C@H](CN2CCN4c5ccc6c(c5OC[C@H]4C2)CN([C@H]2CCC(=O)NC2=O)C6=O)CO3)c(F)cc1[C@@H]1c2ccc(O)cc2CC[C@@H]1c1ccccc1` [Compound A174, (S)-3-((R)-7-(((R)-8-(2-fluoro-4-((1S,2S)-6-hydroxy-2-phenyl-1,2,3,4-tetrahydronaphthalen-1-yl)-5-methoxyphenyl)-1-oxa-8-azaspiro[4.5]decan-3-yl)methyl)-1-oxo-1,3,5,5a,6,7,8,9-octahydro-2H-pyrazino[1′,2′:4,5][1,4]oxazino[2,3-e]isoindol-2-yl)piperidine-2,6-dione], for which the IC50 in assay [1], in assay [4] and in assay [5] was under 10 nM each time. The Dmax in assay [2] (setting [7]) and in assay [3] (setting [8]) was over 75% in each case. The DC50 in assay [2] (16 hrs treatment) and in assay [3] (16 hrs treatment) was under 1 nM in each case.
Turning to `COc1cc(N2CCC3(CC2)C[C@H](CN2CCC4(CC2)COc2cc5c(cc24)CN([C@H]2CCC(=O)NC2=O)C5=O)CO3)c(F)cc1[C@@H]1c2ccc(O)cc2CC[C@@H]1c1ccccc1` [Compound A175, (S)-3-(1′-(((R)-8-(2-fluoro-4-((1S,2S)-6-hydroxy-2-phenyl-1,2,3,4-tetrahydronaphthalen-1-yl)-5-methoxyphenyl)-1-oxa-8-azaspiro[4.5]decan-3-yl)methyl)-7-oxo-5,7-dihydro-2H,6H-spiro[furo[2,3-f]isoindole-3,4′-piperidin]-6-yl)piperidine-2,6-dione], the IC50 in assay [1], in assay [4] and in assay [5] was under 10 nM in each case. Further, the Dmax in assay [2] (setting [9]) and in assay [3] (setting [10]) was over 75% each time. Further, the DC50 in assay [2] (16 hrs treatment) and in assay [3] (16 hrs treatment) was under 1 nM throughout.
On to `COc1cc(N2CCC3(CC2)C[C@H](CN2CCC4(CC2)COc2c4ccc4c2CN([C@H]2CCC(=O)NC2=O)C4=O)CO3)c(F)cc1[C@@H]1c2ccc(O)cc2CC[C@@H]1c1ccccc1` [Compound A176], for which the IC50 in assay [1], in assay [4] and in assay [5] was under 10 nM each time. In addition, the Dmax in assay [2] (setting [9]) and in assay [3] (setting [10]) was over 75% in each case. Moreover, the DC50 in assay [2] (16 hrs treatment) and in assay [3] (16 hrs treatment) was under 1 nM throughout.

For the origin of these results see patent US20260028354A1, “TETRAHYDRONAPHTHALENE DERIVATIVES AS ESTROGEN RECEPTOR DEGRADERS” (REGENT OF THE UNIVERSITY OF MICHIGAN, priority 2022, published 2026).
